US20110082197A1, “Method for inhibiting formation and/or activation of osteoclasts using flemingia macrophylla extract or lespedeza flavanone A” (CHINA MEDICAL UNIVERSITY, priority 2009, published 2011)

Columns and labels:
osteoclast precursors = assay: Differentiation test of osteoclasts (RANKL/M-CSF induced, TRAP staining); format: cell-based, Wistar rats; conditions: for effect of ICI 182,780 on the inhibition of osteoclast formation: 1 nM ICI 182,780 (antagonist of estrogen receptors), result in words
Description: Bone marrow was taken out from the femurs and tibiae of Wistar rats, and bone marrow cavities were washed with a α-minimum essential medium (Hyclone, Logan, Utah, USA) comprising a 20 mmol HEPES buffer solution, 10 vol % heat-inactivated fetal bovine serum, 2 mmol glutamine, 100 U/ml penicillin, and 100 µg/ml streptomycin. After 24 hours, inadhesive hematopoietic cells that were washed were collected, and were used as osteoclast precursors.
The aforesaid precursor cells were incubated in 24-wells culture plates with a density of 1×10^6 cells/well, and the culture plates comprised soluble human recombinant RANKL (50 ng/ml, PeproTech EC, London, UK) and M-CSF (20 ng/ml, PeproTech EC). Under the induction of M-CSF and RANKL, the precursor cells may differentiate into osteoclasts.
Then, various concentrations of the Flemingia macrophylla extract or Lespedeza flavanone A were added into the culture plates, and culture medium was replaced once every 3 days. On the ninth day, osteoclasts were stained with a TRAP staining kit, and the formation of osteoclasts was observed. The cells were then fixed with 10 vol % formaldehyde (in a phosphate buffer solution) for three minutes, and were stained with Naphthol AS-Mx phosphate and a tartaric acid solution at 37° C. for 1 hour. TRAP-positive multinucleated osteoclasts with more than three nuclei were regarded as osteoclasts (see Asagiri et al., The molecular understanding of osteoclast differentiation, Bone, 2007, 40: 251-64, which is entirely incorporated hereinto by reference).
To clarify the mechanism of Lespedeza flavanone A, an experiment was carried out with 1 nM ICI 182,780 (an antagonist of estrogen receptors) (see Howell et al., ICI 182,780 (Faslodex): development of a novel, “pure” antiestrogen, Cancer, 2000, 89: 817-825, which is entirely incorporated hereinto by reference), and influence of ICI 182,780 on the formation of osteoclasts was observed, and 10 nM 17β-estradiol was used for comparison.

OVX rats [1] = assay: Body weight and vagina weight of ovariectomized rats after 13 weeks of oral administration; format: in vivo, Wistar rats; conditions: alendronate 2.5 mg/kg-body weight per day
Description: (§1) Female Wistar rats (BioLASCO, Taipei, Taiwan) were used in the following experiments. In an experiment group, the rats were anesthetized with 40 mg/kg-body weight of pentobarbital sodium, and ovaries in both sides of the dorsum of the rats were removed to induce osteoporosis, and a decrease in estrogen of the postmenopausal female rats was observed. The rats of which ovaries were removed (i.e., ovariectomized rat) are represented as “OVX rats” hereinafter. In the control group (i.e., a sham group), the skin and muscle on the ovary positions at both sides of the dorsum of the rats were incised and then sutured, while the ovaries were not removed.
(§2) After one week from the surgery, the control group was administrated water orally every day. […] During the administration, the body weight of each rat was measured once a week until the last day of the administration. Distilled water was added into the extract to form a suspension, and the rats were administrated orally with 1 ml/100 g-body weight of the suspension.
After the end of the administration in Example 2, the rats were anesthetized with a high dosage of pentobarbital sodium (65 mg/kg-body weight) and were sacrificed. Blood samples of the rats were then collected, and tibiae and vertebrae of the rats were dissected, and vaginas were taken out from the rats and the weight of the vaginas was measured.

OVX rats [2] = assay: Density and content of minerals in tibiae (dual-energy X-ray absorptiometer); format: in vivo, Wistar rats; conditions: oral, alendronate 2.5 mg/kg-body weight per day, 13 weeks
Description: Female Wistar rats (BioLASCO, Taipei, Taiwan) were used in the following experiments. […] The rats of which ovaries were removed (i.e., ovariectomized rat) are represented as “OVX rats” hereinafter. In the control group (i.e., a sham group), the skin and muscle on the ovary positions at both sides of the dorsum of the rats were incised and then sutured, while the ovaries were not removed.

OVX rats [3] = assay: Weight ratio of bone ash and calcium content of fifth vertebra; format: in vivo, Wistar rats; conditions: bone ash, per bone volume, oral, alendronate 2.5 mg/kg-body weight per day, 13 weeks
Description: as §1, §2
The fifth sections of the vertebrae of the rats in Example 3 were dissected in an ethanol bath and dried at 100° C. overnight, and the dry weight of the vertebrae was measured. […] After the cremation, bone ash was collected, and the weight ratio of the bone ash (represented as the percentage of the dry weight of the vertebrae) was measured. […]

OVX rats [4] = assay: Tissue analysis of tibiae (H&E, TRAP staining); format: in vivo, Wistar rats; conditions: oral, alendronate 2.5 mg/kg-body weight per day, 13 weeks
Description: as §1, §2
The left tibiae of the rats in Example 3 were taken and fixed with 4 vol % metaformaldehyde (in a phosphate buffer solution, PBS, pH 7.4) for 48 hours, and calcium was removed in a solution (pH 7.4) of 10 wt % EDTA (ethylenediamine tetraacetic acid) at 4° C. for 4 weeks. After calcium was removed, the bones were cut to generate a cross-section, and tissue staining was carried out with hematoxylin and eosin. […] The microscope images were analyzed with a color image analysis system (Image-Pro Plus version 5.1, Media Cybernetics, Maryland, USA), and the volume of trabecular bones and the thickness of […] of metaphysis of the rats were measured. […]
In another aspect, the above cross-section was stained with a TRAP (tartrate-resistant acid phosphatase) kit (Sigma-Aldrich, St. Louis, Mo., USA), and the number of osteoclasts was measured (see Cole et al., Tartrate-resistant acid phosphatase in bone and cartilage following decalcification and cold-embedding in plastic. J Histochem Cyrochem, 1987: 35, 203-6, which is entirely incorporated hereinto by reference).

OVX rats [5] = assay: Biochemical values of blood and urine (ALP, calcium, DPD); format: in vivo, Wistar rats; conditions: oral, alendronate 2.5 mg/kg-body weight per day, 13 weeks
Description: as §1, §2
The activity of ALP (alkaline phosphatase) and the content of calcium and creatinine in the blood and urine of the rats were measured with a clinical trial kit (Roche Diagnostics, Mannheim, Germany) and a spectrophotometric analyzer (Cobas Mira Plus, Roche, Rotkreuz, Switzerland), and the calcium content in the urine and blood of the rats was also measured with a method using o-cresolphthalein complexone (Randox, UK). ALP is a bio-indicator or molecular marker of an early activation stage of preosteoblasts, and based on ALP activity, the activation situation of preosteoblasts can be observed. The calcium content in the urine is represented as “mg/mmol creatinine in the urine.”
Moreover, the content of deoxypyridinoline (DPD) in the urine was measured with ELISA (enzyme linked immunosorbent assay) (an ELISA kit is purchased from Metra, San Diego, Calif., USA), and is represented as “[…] creatinine in the urine.” The results are shown in Table 5. […]

Row | SMILES | effect of ICI 182,780 on the inhibition of osteoclast formation (osteoclast precursors) | the percentage of osteoclast formation (osteoclast precursors; 10.0 nM with ICI 182,780 (1 nM), day 9) [%] | the percentage of osteoclast formation (osteoclast precursors; 10.0 nM, day 9, control = 100) [%] | the percentage of osteoclast formation (osteoclast precursors; 0.1 μM with ICI 182,780 (1 nM), day 9) [%] | the percentage of osteoclast formation (osteoclast precursors; 0.1 μM, day 9, control = 100) [%] | the percentage of osteoclast formation (osteoclast precursors; 1.0 μM with ICI 182,780 (1 nM), day 9) [%] | the percentage of osteoclast formation (osteoclast precursors; 1.0 μM, day 9, control = 100) [%] | the percentage of osteoclast formation (osteoclast precursors; 10.0 μM with ICI 182,780 (1 nM), day 9) [%] | the percentage of osteoclast formation (osteoclast precursors; 10.0 μM, day 9, control = 100) [%] | average body weight after 13 weeks from the surgery (OVX rats [1]) [g] | average vagina weight (OVX rats [1]) [g] | mineral content (OVX rats [2]) [g] | calcium content (OVX rats [3]) [mg/mL] | osteoclast number/bone surface (OVX rats [4]; TRAP staining, tibia) [mm] | thickness of dermal bones (OVX rats [4]; tibia metaphysis) [μm] | trabecular bone volume/tissue volume (OVX rats [4]; tibia metaphysis) [%] | DPD content in urine (OVX rats [5]; ELISA) [mg/mmol creatinine] | ALP (OVX rats [5]; blood serum) [U/L] | calcium content in urine (OVX rats [5]) [mg/mmol creatinine]
1 | C[C@]12CC[C@@H]3c4ccc(O)cc4CC[C@H]3[C@@H]1CC[C@@H]2O [17β-estradiol] | clearly inhibited the inhibition effect | 83.0 ± 13.2 | 57.7 ± 8.1 | – | – | – | – | – | – | – | – | – | – | – | – | – | – | – | –
2 | COc1ccc([C@@H]2CC(=O)c3c(O)c(CC=C(C)C)c(O)c(CC=C(C)C)c3O2)c(O)c1 [LDF-A, 5,7,2-trihydroxy-6,8-di-r,r-dimethylallyl-4-methoxyflavanone] | did not inhibit the inhibition effect | – | – | 65.0 ± 11.5 | 70.7 ± 9.5 | 49.0 ± 6.2 | 60.0 ± 5.2 | 26.0 ± 8.9 | 27.0 ± 2.6 | – | – | – | – | – | – | – | – | – | –
3 | NCCCC(O)(P(=O)(O)O)P(=O)(O)O [alendronate] | – | – | – | – | – | – | – | – | – | 377.8 ± 36.5 | 0.18 ± 0.01 | 0.38 ± 0.01 | 206.1 ± 24.2 | 2.7 ± 0.4 | 215.0 ± 10.2 | 36.1 ± 1.1 | 281.2 ± 52.3 | 163.5 ± 24.0 | 45.2 ± 14.8
